According to ChEMBL document CHEMBL1154658, “Novel macrocyclic inhibitors of hepatitis C NS3/4A protease featuring a 2-amino-1,3-thiazole as a P4 carbamate replacement” (J Med Chem, 2009):

Tests used:
[1] = test system: Hepatitis C virus; assay: Inhibition of HCV 1b NS3/4A protease by time-resolved fluorescence assay; design: species or system Hepatitis C virus subtype 1b
[2] = test system: Hepatitis C virus; assay: Antiviral activity against HCV 1b infected in human Huh7 cells by bicistronic replicon RNA assay in presence of 10% fetal bovine serum; assay type: functional, organism-based, Hepacivirus hominis; conditions: genotype 1b, Huh-7
[3] = test system: Hepatitis C virus; assay: Antiviral activity against HCV 1b infected in human Huh7 cells by bicistronic replicon RNA assay in presence of 50% normal human serum; assay type: functional, organism-based, Hepacivirus hominis; conditions: genotype 1b, Huh-7
[4] = Drug level in Sprague-Dawley rat liver at 4 mg/kg, po after 4 hrs; assay type: ADME, organism-based; design: dose 4 mg/kg, route oral; conditions: read-out: Drug uptake
[5] = Oral bioavailability in Sprague-Dawley rat at 4 mg/kg; assay type: ADME, organism-based; conditions: in vivo
[6] = (§1) Plasma clearance in Sprague-Dawley rat at 4 mg/kg, po; assay type: ADME, organism-based; design: dose 4 mg/kg, route oral; conditions: Sprague-Dawley, plasma
[7] = (§2) AUC (0 to 4 hrs) in Sprague-Dawley rat at 4 mg/kg, po; assay type: ADME, organism-based, Plasma; design: time < 4 hr, dose 4 mg/kg, route oral; conditions: Sprague-Dawley, plasma
[8] = (§3) AUC (0 to 4 hrs) in Sprague-Dawley rat at 5 mg/kg, po; assay type: ADME, organism-based, Plasma; design: time < 4 hr, dose 5 mg/kg, route oral; conditions: Sprague-Dawley, plasma
[9] = Drug level in Sprague-Dawley rat liver at 5 mg/kg, po after 4 hrs; assay type: ADME, organism-based; design: dose 5 mg/kg, route oral; conditions: read-out: Drug uptake
[10] = test system: Rattus norvegicus; assay: Plasma clearance in Sprague-Dawley rat at 5 mg/kg, po; assay type: ADME, organism-based; design: dose 5 mg/kg, route oral; conditions: in vivo
[11] = test system: Rattus norvegicus; assay: as §3; assay type: ADME, organism-based, Plasma; design: time < 4 hr, dose 5 mg/kg, route oral; conditions: in vivo, 4 h
[12] = Oral bioavailability in Sprague-Dawley rat at 5 mg/kg; assay type: ADME, organism-based; conditions: in vivo
[13] = test system: Rattus norvegicus; assay: as §1; assay type: ADME, organism-based; design: dose 4 mg/kg, route oral; conditions: in vivo
[14] = test system: Rattus norvegicus; assay: as §2; assay type: ADME, organism-based, Plasma; design: time < 4 hr, dose 4 mg/kg, route oral; conditions: in vivo, 4 h

Compound	EC50 [2]	concentration at 4 h [4]	bioavailability [5]	CL/F [6]	AUC(0-t) at 4 h [7]	AUC(0-t) at 4 h [8]	concentration at 4 h [9]	CL [10]	AUC [11]	bioavailability [12]	CL [13]	AUC [14]	EC90 [2]	Ki [1]	EC50 [3]	EC90 [3]
CCC1C[C@]1(NC(=O)[C@@H]1C[C@@H]2CN1C(=O)[C@H](C1CCCCC1)Nc1nc(cs1)CCC/C=C/c1cccc3c1CN(C3)C(=O)O2)C(=O)NS(=O)(=O)C1CC1.O=C(O)C(F)(F)F (single isomer, unassigned)	12 nM	570 nM	< 0.01%	56 mL/min/kg	< 0.01 µM·h									0.16 nM	50 nM	
C=C[C@@H]1C[C@]1(NC(=O)[C@@H]1C[C@@H]2CN1C(=O)[C@H](C1CCCCC1)Nc1nc(cs1)CCCCc1ccc3ccnc(c3c1)O2)C(=O)NS(=O)(=O)C1CC1.O=C(O)C(F)(F)F	30 nM					4.7 µM·h	3400 nM							1.3 nM	350 nM	
C=C[C@@H]1C[C@]1(NC(=O)[C@@H]1C[C@@H]2CN1C(=O)[C@H](C(C)C)Nc1nc(cs1)CCC/C=C/c1cccc3c1CN(C3)C(=O)O2)C(=O)NS(=O)(=O)C1CC1.O=C(O)C(F)(F)F	5 nM						600 nM	21 mL/min/kg	0.4 µM·h	8%				0.16 nM	50 nM	
C=C[C@@H]1C[C@]1(NC(=O)[C@@H]1C[C@@H]2CN1C(=O)[C@H](C1CCCCC1)Nc1nc(cs1)CCC/C=C/c1cccc3c1CN(C3)C(=O)O2)C(=O)NS(=O)(=O)C1CC1.O=C(O)C(F)(F)F	3 nM	350 nM	8%								17 mL/min/kg	0.4 µM·h		0.04 nM	16 nM	
C=C[C@@H]1C[C@]1(NC(=O)[C@@H]1C[C@@H]2CN1C(=O)[C@H](C(C)C)Nc1nc(cs1)CC/C=C/c1ccc3ccnc(c3c1)O2)C(=O)NS(=O)(=O)C1CC1.O=C(O)C(F)(F)F	30 nM					0.9 µM·h	2400 nM							5 nM	730 nM	

The next lines start with results.

EC50 [2]	concentration at 4 h [4]	bioavailability [5]	CL/F [6]	AUC(0-t) at 4 h [7]	AUC(0-t) at 4 h [8]	concentration at 4 h [9]	CL [10]	AUC [11]	bioavailability [12]	CL [13]	AUC [14]	EC90 [2]	Compound	Ki [1]	EC50 [3]	EC90 [3]
120 nM													C=C[C@@H]1C[C@]1(NC(=O)[C@@H]1C[C@@H]2CN1C(=O)[C@H](C(C)C)Nc1nc(cs1)CCCCCc1ccc3ccnc(c3c1)O2)C(=O)NS(=O)(=O)C1CC1	1.5 nM	830 nM	
80 nM					0.1 µM·h	30 nM							C=C[C@@H]1C[C@]1(NC(=O)[C@@H]1C[C@@H]2CN1C(=O)[C@H](C(C)C)NC1=NN=C(CCCCc3ccc4ccnc(c4c3)O2)O1)C(=O)NS(=O)(=O)C1CC1	0.9 nM	180 nM	
2 nM	180 nM	36%	25 mL/min/kg	0.7 µM·h								3 nM	C=C[C@@H]1C[C@]1(NC(=O)[C@@H]1C[C@@H]2CN1C(=O)[C@H](C1CCCC1)Nc1nc(cs1)CCC/C=C/c1cccc3c1CN(C3)C(=O)O2)C(=O)NS(=O)(=O)C1CC1.O=C(O)C(F)(F)F	0.08 nM	16 nM	34 nM
60 nM					9.9 µM·h	5500 nM			60%				C=C[C@@H]1C[C@]1(NC(=O)[C@@H]1C[C@@H]2CN1C(=O)[C@H](C(C)C)Nc1nc(cs1)CCCCc1ccc3ccnc(c3c1)O2)C(=O)NS(=O)(=O)C1CC1.O=C(O)C(F)(F)F	1.7 nM	920 nM	
